According to US10100282B2, “Differentiation of pluripotent cells” (FUJIFILM Cellular Dynamics, Inc., priority 2009, dated 2018):

Columns and labels:
ROCK = conditions: cited from earlier work
hESCs and iPSCs = experiment: EB formation from single cell suspensions using ROCK inhibitors/PVA; format: cell-based, human; conditions: 18-24 hrs
Procedure: hESCs and iPSCs adapted to feeder free growth on matrigel maintained using mTESR were preconditioned for three days in the presence of mTesR-GF containing 0.1 ng/ml TGF-β and 20 ng/ml FGF-2. To initiate differentiation from single cells the, the cultures were treated with TrypLE™ (Invitrogen) for 6 minutes and the cells suspension was collected in (1) plain EB basal media, (2) EB basal media containing PVA, (3) EB basal media containing 0.5% PVA and 1 μM H1152 or 10 μM Y27632 ROCK inhibitor, or (4) EB basal media containing only 1 uM H1152 ROCK inhibitor. The cells were collected and washed once and plated in the respective media formulations on a low attachment plate at 37 C. The EB formation status was checked at 18-24 hrs later under a phase contrast microscope.

hESCs = experiment: Cytokine matrix: serum-free EB hematopoietic differentiation, surface markers by flow cytometry; format: cell-based, human; conditions: for role during EB differentiation: serum free hematopoietic differentiation, days 8, 12, 17
Procedure: Cells were collected from each well/condition and washed once with media. The cell pellet was digested using TrypLE™ or 0.5% trypsin for 5-10 minutes in a 37° C. incubator followed by washes with media and passage through a 70-μm cell strainer. […] Non-viable cells were excluded with 7-aminoactinomycin D (7-AAD, BD Biosciences). Live cell analysis was performed on a FACSCalibur™ or Accuri flow cytometer and Cell Quest software. hESCs adapted to feeder free growth on matrigel maintained using mTESR were preconditioned for three days in the presence of X-vivo-15 containing 0.1 ng/ml TGF-β and 20 ng/ml FGF-2. Cells were harvested using TrypLE for 6 minutes at 37 C. TrypLE™ was neutralized using EB basal media containing 1 μM ROCK inhibitor (H-1152), Soybean trypsin inhibitor (0.25 mg/ml). The cells were washed once in EB basal media containing 1 μM ROCK inhibitor and soybean trypsin inhibitor (0.25 mg/ml). The cells were plated in low attachment plates in EB basal media containing 1 μM ROCK inhibitor and soybean trypsin inhibitor (0.25 mg/ml). The media was changed the next day to EB basal media containing different cytokine formulations. […] The cytokine combinations used are listed below in Table 3. The EB cultures were half fed with fresh differentiation media every two days. The EB cultures were harvested on day 8, 12 and 17 of differentiation. The EB cultures were harvested by spinning down all the cells and digesting the EBs with TrypLE™ or 0.5% trypsin. The phenotype of the progenitor cell types was analyzed by flow cytometry and the cells were plated in methylcellulose media for CFU assays. “FLT3” refers to the Flt3 ligand below.

pluripotent cells = experiment: Hematopoietic differentiation in defined cell culture media with single growth factors; format: cell-based; conditions: factor alone in a cell culture media
[1] = ROCK inhibitor present (1 μM H1152 or 10 μM Y27632), 0.5% PVA present
[2] = ROCK inhibitor present, PVA absent

## Cc1cncc2cccc(S(=O)(=O)N3CCCNCC3C)c12 (stereo in doubt) [H-1152, (S)-(+)-2-Methyl-1-[(4-methyl-5-isoquinolinyl)sulfonyl]homopiperazine]
ROCK
  potency relative to HA-100: approximately ten-fold
hESCs and iPSCs; [1]
  EB status: Formed
hESCs and iPSCs; [2]
  EB status: Formed

## BMP4: Bone morphogenetic protein-4
hESCs; DAY 8, factor ABSENT
  CD31 expressing cells: 0.2%
  CD34 expressing cells: 0.5%
  CD43 expressing cells: 0.1%
  CD45 expressing cells: 0.2%
  FLK-1 expressing cells: 1.4%
hESCs; DAY 8, factor PRESENT
  CD31 expressing cells: 1.3%
  CD34 expressing cells: 1.7%
  CD43 expressing cells: 1.6%
  CD45 expressing cells: 0.2%
  FLK-1 expressing cells: 2.4%
hESCs; DAY 12, factor ABSENT
  CD31 expressing cells: 0.6%
  CD34 expressing cells: 1.3%
  CD43 expressing cells: 0.3%
  CD45 expressing cells: 0.1%
  FLK-1 expressing cells: 0.2%
hESCs; DAY 12, factor PRESENT
  CD31 expressing cells: 3.2%
  CD34 expressing cells: 2.9%
  CD43 expressing cells: 4.0%
  CD45 expressing cells: 3.7%
  FLK-1 expressing cells: 0.7%
hESCs; DAY 17, factor ABSENT
  CD31 expressing cells: 1.0%
  CD34 expressing cells: 2.0%
  CD43 expressing cells: 0.7%
  CD45 expressing cells: 0.3%
  FLK-1 expressing cells: 0.8%
hESCs; DAY 17, factor PRESENT
  CD31 expressing cells: 11.9%
  CD34 expressing cells: 2.9%
  CD43 expressing cells: 12.8%
  CD45 expressing cells: 12.8%
  FLK-1 expressing cells: 2.7%
hESCs
  role during EB differentiation: significant role at all time points
Pluripotent cells
  promotion of hematopoietic differentiation: did not promote hematopoietic differentiation

## VEGF
hESCs; DAY 8, factor ABSENT
  CD31 expressing cells: 0.4%
  CD34 expressing cells: 0.7%
  CD43 expressing cells: 0.1%
  CD45 expressing cells: 0.1%
  FLK-1 expressing cells: 2.0%
hESCs; DAY 8, factor PRESENT
  CD31 expressing cells: 1.1%
  CD34 expressing cells: 1.5%
  CD43 expressing cells: 1.6%
  CD45 expressing cells: 0.2%
  FLK-1 expressing cells: 1.8%
hESCs; DAY 12, factor ABSENT
  CD31 expressing cells: 0.6%
  CD34 expressing cells: 1.3%
  CD43 expressing cells: 0.2%
  CD45 expressing cells: 0.2%
  FLK-1 expressing cells: 0.3%
hESCs; DAY 12, factor PRESENT
  CD31 expressing cells: 3.2%
  CD34 expressing cells: 2.9%
  CD43 expressing cells: 4.0%
  CD45 expressing cells: 3.6%
  FLK-1 expressing cells: 0.6%
hESCs; DAY 17, factor ABSENT
  CD31 expressing cells: 1.0%
  CD34 expressing cells: 2.0%
  CD43 expressing cells: 0.9%
  CD45 expressing cells: 0.4%
  FLK-1 expressing cells: 1.4%
hESCs; DAY 17, factor PRESENT
  CD31 expressing cells: 11.8%
  CD34 expressing cells: 2.8%
  CD43 expressing cells: 12.6%
  CD45 expressing cells: 12.7%
  FLK-1 expressing cells: 2.3%
hESCs
  role during EB differentiation: significant role at all time points
Pluripotent cells
  promotion of hematopoietic differentiation: did not promote hematopoietic differentiation

## C[C@@H](N)[C@H]1CC[C@H](C(=O)Nc2ccncc2)CC1 [Y-27632, (R)-(+)-trans-4-(1-Aminoethyl)-N-(4-Pyridyl)cyclohexanecarboxamide]
hESCs and iPSCs; [1]
  EB status: Formed
hESCs and iPSCs; [2]
  EB status: Formed

B1: GCSF: granulocyte colony-stimulating factor (protein, UniProt P09919 31-207, looked up)
Granulocyte …: TPLGPASSLPQSFLLKCLEQVRKIQGDGAALQEKLVSECATYKLCHPEELVLLGHSLGIPWAPLSSCPSQALQLAGCLSQLHSGLFLYQGLLQALEGISPELGPTLDTLQLDVADFATTIWQQMEELGMAPALQPTQGAMPAFASAFQRRAGGVLVASHLQSFLEVSYRVLRHLAQP
hESCs; DAY 8, factor ABSENT
  CD31 expressing cells: 0.8%
  CD34 expressing cells: 1.2%
  CD43 expressing cells: 1.0%
  CD45 expressing cells: 0.2%
  FLK-1 expressing cells: 2.2%
hESCs; DAY 8, factor PRESENT
  CD31 expressing cells: 0.7%
  CD34 expressing cells: 1.1%
  CD43 expressing cells: 0.8%
  CD45 expressing cells: 0.2%
  FLK-1 expressing cells: 1.7%
hESCs; DAY 12, factor ABSENT
  CD31 expressing cells: 2.2%
  CD34 expressing cells: 2.4%
  CD43 expressing cells: 2.3%
  CD45 expressing cells: 2.6%
  FLK-1 expressing cells: 0.7%
hESCs; DAY 12, factor PRESENT
  CD31 expressing cells: 1.8%
  CD34 expressing cells: 2.0%
  CD43 expressing cells: 2.3%
  CD45 expressing cells: 1.5%
  FLK-1 expressing cells: 0.4%
hESCs; DAY 17, factor ABSENT
  CD31 expressing cells: 4.8%
  CD34 expressing cells: 2.7%
  CD43 expressing cells: 4.9%
  CD45 expressing cells: 4.9%
  FLK-1 expressing cells: 1.6%
hESCs; DAY 17, factor PRESENT
  CD31 expressing cells: 8.6%
  CD34 expressing cells: 2.2%
  CD43 expressing cells: 9.1%
  CD45 expressing cells: 8.8%
  FLK-1 expressing cells: 2.1%

B2: FLT-3: Flt3 ligand, the endogenous ligand for FLT3 (protein, UniProt P49771 27-235, looked up)
Fms-related tyrosine kinase 3 …: TQDCSFQHSPISSDFAVKIRELSDYLLQDYPVTVASNLQDEELCGGLWRLVLAQRWMERLKTVAGSKMQGLLERVNTEIHFVTKCAFQPPPSCLRFVQTNISRLLQETSEQLVALKPWITRQNFSRCLELQCQPDSSTLPPPWSPRPLEATAPTAPQPPLLLLLLLPVGLLLLAAAWCLHWQRTRRRTPRPGEQVPPVPSPQDLLLVEH
hESCs; DAY 8, factor ABSENT
  CD31 expressing cells: 0.5%
  CD34 expressing cells: 0.9%
  CD43 expressing cells: 0.3%
  CD45 expressing cells: 0.2%
  FLK-1 expressing cells: 1.6%
hESCs; DAY 8, factor PRESENT
  CD31 expressing cells: 1.0%
  CD34 expressing cells: 1.4%
  CD43 expressing cells: 1.4%
  CD45 expressing cells: 0.2%
  FLK-1 expressing cells: 2.2%
hESCs; DAY 12, factor ABSENT
  CD31 expressing cells: 1.5%
  CD34 expressing cells: 1.7%
  CD43 expressing cells: 1.4%
  CD45 expressing cells: 1.2%
  FLK-1 expressing cells: 0.5%
hESCs; DAY 12, factor PRESENT
  CD31 expressing cells: 2.4%
  CD34 expressing cells: 2.6%
  CD43 expressing cells: 3.0%
  CD45 expressing cells: 2.7%
  FLK-1 expressing cells: 0.5%
hESCs; DAY 17, factor ABSENT
  CD31 expressing cells: 1.4%
  CD34 expressing cells: 2.2%
  CD43 expressing cells: 1.1%
  CD45 expressing cells: 0.9%
  FLK-1 expressing cells: 1.3%
hESCs; DAY 17, factor PRESENT
  CD31 expressing cells: 11.5%
  CD34 expressing cells: 2.6%
  CD43 expressing cells: 12.4%
  CD45 expressing cells: 12.3%
  FLK-1 expressing cells: 2.4%
